The source of these data is patent US6620833B1, “Substituted benzimidazoles, production and use thereof as agents for combating parasitic protozoas” (Bayer Aktiengesellschaft, priority 1998, dated 2003).

Holding throughout (format): in vivo
Assay [1] relates to Eimeria tenella. The experiment in a line: Cage experiment on coccidiosis/chicks, E. tenella readout. The conditions noted are these: third symbol of cell.
Assay [2] deals with Eimeria acervulina. The experiment in a line: Cage experiment on coccidiosis/chicks, E. acervulina readout. As to conditions: first symbol of cell.
For assay [3], the system named is Eimeria maxima. Description: Cage experiment on coccidiosis/chicks, E. maxima readout. As to conditions: second symbol of cell.
Note: key: 2=full action; 1=slight action; 0=inactive; D=death.

For the compound `COC(=O)N(C)Cn1c(C(F)(F)F)nc2c(Br)cc3c(c21)OC(F)(F)C(F)(F)O3` [Ex. 2], the “Efficacy against Eimeria tenella” value was 1 in assay [1] (Table 4, dose 2.5 ppm); 2 in assay [1] (Table 4, dose 5 ppm); “D D D” in assay [1] (Table 4, dose 10 ppm). In addition, the “Efficacy against Eimeria acervulina” value in assay [2] (Table 4, dose 2.5 ppm) is 1; in assay [2] (Table 4, dose 5 ppm), 2; in assay [2] (Table 4, dose 10 ppm), “D D D”. The “Efficacy against Eimeria maxima” value is recorded as 2 in assay [3] (Table 4, dose 2.5 ppm); 2 in assay [3] (Table 4, dose 5 ppm); “D D D” in assay [3] (Table 4, dose 10 ppm).
Consider `COC(=O)N(C)Cn1c(C(F)(F)F)nc2c(Cl)cc3c(c21)OC(F)(F)C(F)(F)O3` [Ex. 3], for which the “Efficacy against Eimeria tenella” value in assay [1] (Table 4, dose 2.5 ppm) was 1; in assay [1] (Table 4, dose 5 ppm), 2; in assay [1] (Table 4, dose 10 ppm), 2. The “Efficacy against Eimeria acervulina” value in assay [2] (Table 4, dose 2.5 ppm) is listed as 0; in assay [2] (Table 4, dose 5 ppm) it was 2; in assay [2] (Table 4, dose 10 ppm), 2. In addition, the “Efficacy against Eimeria maxima” value in assay [3] (Table 4, dose 2.5 ppm) is 2; in assay [3] (Table 4, dose 5 ppm) it was 2; in assay [3] (Table 4, dose 10 ppm), 2.
As for `CCN(Cn1c(C(F)(F)F)nc2c(Cl)cc3c(c21)OC(F)(F)C(F)(F)O3)C(=O)OC` [Ex. 4], the “Efficacy against Eimeria tenella” value in assay [1] (Table 4, dose 2.5 ppm) was 1; in assay [1] (Table 4, dose 5 ppm), 1; in assay [1] (Table 4, dose 10 ppm), 1. Moreover, the “Efficacy against Eimeria acervulina” value is reported as 1 in assay [2] (Table 4, dose 2.5 ppm); 1 in assay [2] (Table 4, dose 5 ppm); 1 in assay [2] (Table 4, dose 10 ppm). In addition, the “Efficacy against Eimeria maxima” value in assay [3] (Table 4, dose 2.5 ppm) was 2; in assay [3] (Table 4, dose 5 ppm) it was 1; in assay [3] (Table 4, dose 10 ppm) it was 1.
As to `CCCCN(Cn1c(C(F)(F)F)nc2c(Br)cc3c(c21)OC(F)(F)C(F)(F)O3)C(=O)OCC` [Ex. 5], the “Efficacy against Eimeria tenella” value in assay [1] (Table 4, dose 2.5 ppm) is on record as 1; in assay [1] (Table 4, dose 5 ppm), 1; in assay [1] (Table 4, dose 10 ppm), 2. Further, the “Efficacy against Eimeria acervulina” value in assay [2] (Table 4, dose 2.5 ppm) worked out at 1; in assay [2] (Table 4, dose 5 ppm), 1; in assay [2] (Table 4, dose 10 ppm) it was 1. Moreover, the “Efficacy against Eimeria maxima” value stood at 2 in assay [3] (Table 4, dose 2.5 ppm); 1 in assay [3] (Table 4, dose 5 ppm); 1 in assay [3] (Table 4, dose 10 ppm).
In the case of `CCOC(=O)N(Cn1c(C(F)(F)F)nc2c(Br)cc3c(c21)OC(F)(F)C(F)(F)O3)C(C)C` [Ex. 6], the “Efficacy against Eimeria tenella” value in assay [1] (Table 4, dose 2.5 ppm) is 1; in assay [1] (Table 4, dose 5 ppm), 2; in assay [1] (Table 4, dose 10 ppm), 2. In addition, the “Efficacy against Eimeria acervulina” value in assay [2] (Table 4, dose 2.5 ppm) is reported as 1; in assay [2] (Table 4, dose 5 ppm) it was 2; in assay [2] (Table 4, dose 10 ppm), 2. Moreover, the “Efficacy against Eimeria maxima” value in assay [3] (Table 4, dose 2.5 ppm) is given as 1; in assay [3] (Table 4, dose 5 ppm), 2; in assay [3] (Table 4, dose 10 ppm) it was 2.
Consider `CCOC(=O)N(Cn1c(C(F)(F)F)nc2c(Cl)cc3c(c21)OC(F)(F)C(F)(F)O3)C(C)C` [Ex. 7], for which the “Efficacy against Eimeria tenella” value in assay [1] (Table 4, dose 2.5 ppm) is listed as 2; in assay [1] (Table 4, dose 5 ppm) it was 2; in assay [1] (Table 4, dose 10 ppm), 1. The “Efficacy against Eimeria acervulina” value in assay [2] (Table 4, dose 2.5 ppm) is 2; in assay [2] (Table 4, dose 5 ppm), 2; in assay [2] (Table 4, dose 10 ppm), 2. The “Efficacy against Eimeria maxima” value in assay [3] (Table 4, dose 2.5 ppm) is listed as 1; in assay [3] (Table 4, dose 5 ppm) it was 2; in assay [3] (Table 4, dose 10 ppm), 2.
Take `COC(=O)N(Cn1c(C(F)(F)F)nc2c(Cl)cc3c(c21)OC(F)(F)C(F)(F)O3)c1ccccc1C` [Ex. 8]: the “Efficacy against Eimeria tenella” value in assay [1] (Table 4, dose 2.5 ppm) was 0; in assay [1] (Table 4, dose 5 ppm) it was 1; in assay [1] (Table 4, dose 10 ppm) it was 2. The “Efficacy against Eimeria acervulina” value in assay [2] (Table 4, dose 2.5 ppm) is recorded as 0; in assay [2] (Table 4, dose 5 ppm), 0; in assay [2] (Table 4, dose 10 ppm), 2. In addition, the “Efficacy against Eimeria maxima” value in assay [3] (Table 4, dose 2.5 ppm) worked out at 0; in assay [3] (Table 4, dose 5 ppm), 1; in assay [3] (Table 4, dose 10 ppm), 2.
